# Experimental data taken from article PMC11696576, “Next generation thiazolyl ketone inhibitors of cytosolic phospholipase A2 α for targeted cancer therapy” (Nature Communications, 2025).
# Values joined by “and” are separate entries in the source; they are usually repeats but may differ in a detail not shown here. Identical values can stand only once. Like-named read-outs stand apart in the source and are kept apart here.
# Test system: Jurkat E6.1 cells
# Assay: cell viability, CTG assay, Jurkat E6.1
# Format: cell-based, human
# Details: for viability at 0.125 µM: Jurkat E6.1, 0.125 µM; for cell viability (0 µM = 100): listed as AVX420; for cell viability (Control = 100): Jurkat cells
# Excerpt: Data are the mean ± stdev of 3 biological replicates. […] Data are the mean ± stdev of 3 biological replicates.
# Bjørn Tore Gjertsen (University of Bergen, Norway). […] The cell lines were not authenticated.
smiles,measurement,setting,value
CCCCCCCOc1ccc(OCC(=O)c2nc(C(=O)OC)cs2)cc1 [GK420],viability at 0.062 µM,"Homo sapiens, Jurkat E6.1, 24 h, Jurkat E6.1, 0.062 µM, 24H, read-out: cell viability (0 µM = 100)",103%
same,viability at 0.125 µM,"Homo sapiens, Jurkat E6.1, 24 h, 24H, read-out: cell viability (0 µM = 100)",101%
same,viability at 0.25 µM,"Homo sapiens, Jurkat E6.1, 24 h, Jurkat E6.1, 0.25 µM, 24H, read-out: cell viability (0 µM = 100)",90%
same,viability at 0.5 µM,"Homo sapiens, Jurkat E6.1, 24 h, Jurkat E6.1, 0.5 µM, 24H, read-out: cell viability (0 µM = 100)",51%
same,viability at 1 µM,"Homo sapiens, Jurkat E6.1, 24 h, Jurkat E6.1, 1 µM, 24H, read-out: cell viability (0 µM = 100)",28%
same,viability at 2 µM,"Homo sapiens, Jurkat E6.1, 24 h, Jurkat E6.1, 2 µM, 24H, read-out: cell viability (0 µM = 100)",16%
same,viability at 0.007 µM,"Homo sapiens, Jurkat E6.1, 48 h, Jurkat E6.1, 0.007 µM, 48H, read-out: cell viability (0 µM = 100)",101%
same,viability at 0.015 µM,"Homo sapiens, Jurkat E6.1, 48 h, Jurkat E6.1, 0.015 µM, 48H, read-out: cell viability (0 µM = 100)",99%
same,viability at 0.031 µM,"Homo sapiens, Jurkat E6.1, 48 h, Jurkat E6.1, 0.031 µM, 48H, read-out: cell viability (0 µM = 100)",100%
same,viability at 0.062 µM,"Homo sapiens, Jurkat E6.1, 48 h, Jurkat E6.1, 0.062 µM, 48H, read-out: cell viability (0 µM = 100)",104%
same,viability at 0.125 µM,"Homo sapiens, Jurkat E6.1, 48 h, 48H, read-out: cell viability (0 µM = 100)",104%
same,viability at 0.25 µM,"Homo sapiens, Jurkat E6.1, 48 h, Jurkat E6.1, 0.25 µM, 48H, read-out: cell viability (0 µM = 100)",79%
same,viability at 0.5 µM,"Homo sapiens, Jurkat E6.1, 48 h, Jurkat E6.1, 0.5 µM, 48H, read-out: cell viability (0 µM = 100)",39%
same,viability at 1 µM,"Homo sapiens, Jurkat E6.1, 48 h, Jurkat E6.1, 1 µM, 48H, read-out: cell viability (0 µM = 100)",16%
same,viability at 2 µM,"Homo sapiens, Jurkat E6.1, 48 h, Jurkat E6.1, 2 µM, 48H, read-out: cell viability (0 µM = 100)",9%
same,viability at 4 µM,"Homo sapiens, Jurkat E6.1, 48 h, Jurkat E6.1, 4 µM, 48H, read-out: cell viability (0 µM = 100)",5%
same,viability at 0.007 µM,"Homo sapiens, Jurkat E6.1, 72 h, Jurkat E6.1, 0.007 µM, 72H, read-out: cell viability (0 µM = 100)",100%
same,viability at 0.015 µM,"Homo sapiens, Jurkat E6.1, 72 h, Jurkat E6.1, 0.015 µM, 72H, read-out: cell viability (0 µM = 100)",97%
same,viability at 0.031 µM,"Homo sapiens, Jurkat E6.1, 72 h, Jurkat E6.1, 0.031 µM, 72H, read-out: cell viability (0 µM = 100)",90%
same,viability at 0.062 µM,"Homo sapiens, Jurkat E6.1, 72 h, Jurkat E6.1, 0.062 µM, 72H, read-out: cell viability (0 µM = 100)",87%
same,viability at 0.125 µM,"Homo sapiens, Jurkat E6.1, 72 h, 72H, read-out: cell viability (0 µM = 100)",87%
same,viability at 0.25 µM,"Homo sapiens, Jurkat E6.1, 72 h, Jurkat E6.1, 0.25 µM, 72H, read-out: cell viability (0 µM = 100)",76%
same,viability at 0.5 µM,"Homo sapiens, Jurkat E6.1, 72 h, Jurkat E6.1, 0.5 µM, 72H, read-out: cell viability (0 µM = 100)",31%
same,viability at 1 µM,"Homo sapiens, Jurkat E6.1, 72 h, Jurkat E6.1, 1 µM, 72H, read-out: cell viability (0 µM = 100)",10%
same,viability at 0.5 µM,"Homo sapiens, Jurkat E6.1, Jurkat cells, 0.5 µM, VEH, read-out: cell viability (Control = 100)",50%
same,viability at 1 µM,"Homo sapiens, Jurkat E6.1, Jurkat cells, 1 µM, VEH, read-out: cell viability (Control = 100)",34%
same,cell viability (0 µM = 100),"Jurkat E6.1, 0.007 µM, 24H",98 and 97
same,cell viability (0 µM = 100),"Jurkat E6.1, 0.007 µM, 48H",98 and 97
same,cell viability (0 µM = 100),"Jurkat E6.1, 0.007 µM, 72H",98
same,cell viability (0 µM = 100),"Jurkat E6.1, 0.015 µM, 48H",98 and 97
same,cell viability (0 µM = 100),"Jurkat E6.1, 0.031 µM, 24H",95
same,cell viability (0 µM = 100),"Jurkat E6.1, 0.031 µM, 48H",98
same,cell viability (0 µM = 100),"Jurkat E6.1, 0.031 µM, 72H",95
same,cell viability (0 µM = 100),"Jurkat E6.1, 0.062 µM, 24H",94
same,cell viability (0 µM = 100),"Jurkat E6.1, 0.062 µM, 48H",93
same,cell viability (0 µM = 100),"Jurkat E6.1, 0.062 µM, 72H",98
same,cell viability (0 µM = 100),"Jurkat E6.1, 0.25 µM, 72H",61
same,cell viability (0 µM = 100),"Jurkat E6.1, 0.5 µM, 24H",41 and 43
same,cell viability (0 µM = 100),"Jurkat E6.1, 0.5 µM, 72H",30 and 21
same,cell viability (0 µM = 100),"Jurkat E6.1, 1 µM, 24H",19 and 21
same,cell viability (0 µM = 100),"Jurkat E6.1, 1 µM, 48H",14 and 13
same,cell viability (0 µM = 100),"Jurkat E6.1, 1 µM, 72H",8
same,cell viability (0 µM = 100),"Jurkat E6.1, 2 µM, 48H",7
same,cell viability (0 µM = 100),"Jurkat E6.1, 4 µM, 48H",3
same,effect on viability,"Jurkat E6.1, CTG",strong dose-dependent effect
same,cell viability (Control = 100),"0.5 µM, VEH, listed as AVX420, 0.5 µM",46 and 55
same,cell viability (Control = 100),"1 µM, VEH, listed as AVX420, 1 µM",21
